Reference: US7989495B2, “Compositions and methods for inhibiting NF-κB mediated tumorigenicity and adhesion dependent survival of cancer cells” (University of Utah Research Foundation, priority 2002, dated 2011)

Legend:
Assay type in all cases: cell-based
HT-29 cells = assay: One-hour cell adhesion assay (crystal violet); conditions: HT-29 pretreated three days (3 hours elsewhere in the source) with various concentrations
Experimental: The data points represent the average percent of annexin V-positive, propidium iodide-negative cells (of the total cells counted) from triplicate experiments. The error bars represent the standard error of the means. […] The results shown are a graphic representation of individual flow cytometry results expressed as the percentage of cells that were annexin V-positive of those that excluded propidium iodide. […] An immunoblot of the lysates for cleaved PARP was performed. Each lane represents equal total protein concentrations. […] The cells were allowed to adhere to plastic dishes for 1 hour after which they were washed gently in PBS and stained with crystal violet. The crystal violet stained cells were solubilized in deoxycholate and the absorbance detected in a spectrophotometer at 590 nm. The adherent cells were expressed as a fraction of the controls Each data point represents the average of triplicate experiments and the error bars the standard errors of the means.
Even though BAY 11-7085 induced a loss of cell adhesion, it was important to show whether HT-29 cells were actually susceptible to anoikis.

[1] = test system: FLIP (54 kilodalton long isoform); assay: Immunoblot of anti-apoptotic proteins in HT-29 cells; conditions: adherent HT-29; 20 μM
Experimental: (§1) The data points represent the means of triplicate experiments and the error bars the standard errors of the means. […] The percent of apoptotic cells was then determined by the annexin V assay. […] The results shown are typical of two separate experiments. […] Immunoblots were performed for c-IAP-2, TRAF-1, TRAF-2, and FLIP. All lanes contain equal total protein.
(§2) The cells were washed twice in ice cold PBS and then lysed in 4° C. lysis buffer (50 mM HEPES, 150 mM NaCl, 1.5 mM MgCl2, 1 mM EGTA, 100 mM NaF, 10 mM Na2PO4, 1 mM Na3VO4, 10% glycerol, 1% Triton X-100, and 1 μg/ml each of aprotinin, leupeptin, chymostatin, pepstatin) and clarified at 12,000 rpm at 4° C. for 15 minutes. The lysates were normalized for total protein concentration. Aliquots of the lysates were then mixed 1:1 in sample buffer (125 mM Tris-HCl (pH 6.8), 20% glycerol. 4% sodium dodecyl sulfate, 2% beta-mercaptoethanol, 10 μg/ml bromophenol blue) and boiled for 3 minutes. The samples were loaded onto SDS-PAGE gels (7.5 or 10% acrylamide). The proteins were transferred to nitrocellulose from the gels, then incubated in blocking buffer (1% bovine serum albumin (Bio-Rad), 100 mM Tris-Cl (pH7.4), 0.9% NaCl, 0.1% Nonidet) overnight at 4° C.
(§3) For immunodetection, the blocked blots were probed with primary antibody for 2 hours at 4° C. on a rocker. The blots were washed twice for 10 minutes each in blocking buffer, then incubated with a 1:2000 dilution of a rabbit-anti-mouse secondary antibody (for monoclonal primary antibodies; for polyclonal antibodies, this step was skipped). After two washes in blocking buffer (150 mM NaCl, 20 mM Tris pH 7.4, 0.5% Tween 20, 5% bovine serum albumin, and 0.2 gm/500 ml final concentration of sodium azide), the blots were finally incubated with a 1:2000 dilution of alkaline phosphatase-conjugated rabbit-anti-mouse antibodies (Jackson) in blocking buffer. Alkaline phosphatase was detected by a colorimetric reaction using a BCIP (5-Bromo-4-Chloro-3-Indolyl phosphate)/NBT (Nitroblue tetrazolium) kit (Zymed).

TRAF-1 = assay: as above; conditions: 20 μM, 8 hours
Experimental: as §1, §2, §3

TRAF-2 = assay: as above; conditions: 20 μM, 8 hours
Experimental: as §1, §2, §3

c-IAP-1 = assay: as above; conditions: transiently suspended or adherent HT-29; 20 μM; 8 hours
Experimental: as §1, §2, §3

`CC(C)(C)c1ccc(S(=O)(=O)/C=C/C#N)cc1` [BAY 11-7085, (2E)-3-[4-(tertiarybutylphenyl)sulfonyl]-2-propenenitrile] was tested, and the “inhibition of cell adhesion” value (HT-29 cells) was “significant and rapid inhibition of cell adhesion at high concentrations”, the “expression of the 54 kilodalton (long) isoform of FLIP” value [1] was “only a slight diminution” and the TRAF-1 protein expression (TRAF-1) was “decrease in the protein expression”. For the same compound, the TRAF-2 protein expression (TRAF-2) was “decrease in the protein expression” and the c-IAP-1 protein expression (c-IAP-1) was “No decrease in c-IAP-1 protein expression”.
